These are literature values, as cited in PMC9516332 (Frontiers in Oncology, 2022).

For series [1], the target named is T1, panel of 255 wild-type kinases (Homo sapiens, UniProt Q8IWQ3).
T1 sequence (Q8IWQ3 1-736): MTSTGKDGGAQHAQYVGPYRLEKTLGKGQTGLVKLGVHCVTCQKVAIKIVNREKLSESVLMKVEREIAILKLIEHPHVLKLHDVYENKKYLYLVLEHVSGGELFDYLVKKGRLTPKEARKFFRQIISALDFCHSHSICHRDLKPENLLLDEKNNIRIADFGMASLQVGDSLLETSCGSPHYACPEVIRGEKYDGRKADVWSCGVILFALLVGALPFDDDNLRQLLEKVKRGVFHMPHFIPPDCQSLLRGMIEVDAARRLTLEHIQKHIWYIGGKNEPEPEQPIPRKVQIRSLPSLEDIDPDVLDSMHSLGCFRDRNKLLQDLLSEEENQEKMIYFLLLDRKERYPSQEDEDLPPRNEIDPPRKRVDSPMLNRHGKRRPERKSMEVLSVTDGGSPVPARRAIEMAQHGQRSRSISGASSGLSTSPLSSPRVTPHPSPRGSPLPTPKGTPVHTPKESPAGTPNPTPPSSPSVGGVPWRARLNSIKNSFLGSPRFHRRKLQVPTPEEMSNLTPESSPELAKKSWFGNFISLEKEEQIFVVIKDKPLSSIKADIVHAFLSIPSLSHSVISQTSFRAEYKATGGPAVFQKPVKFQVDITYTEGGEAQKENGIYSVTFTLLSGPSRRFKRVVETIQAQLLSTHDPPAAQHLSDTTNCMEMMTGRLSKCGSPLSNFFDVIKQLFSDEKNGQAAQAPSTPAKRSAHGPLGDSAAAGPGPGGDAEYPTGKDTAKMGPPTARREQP
Conditions: BRSK2 kinase assay; 1 µmol/L single concentration; ref DOI: 10.1371/journal.pone.0092146; cited from earlier work.

Series [2] has as its target T2, panel of 255 wild-type kinases (Homo sapiens, UniProt Q9UQB9).
T2 sequence (Q9UQB9 1-309): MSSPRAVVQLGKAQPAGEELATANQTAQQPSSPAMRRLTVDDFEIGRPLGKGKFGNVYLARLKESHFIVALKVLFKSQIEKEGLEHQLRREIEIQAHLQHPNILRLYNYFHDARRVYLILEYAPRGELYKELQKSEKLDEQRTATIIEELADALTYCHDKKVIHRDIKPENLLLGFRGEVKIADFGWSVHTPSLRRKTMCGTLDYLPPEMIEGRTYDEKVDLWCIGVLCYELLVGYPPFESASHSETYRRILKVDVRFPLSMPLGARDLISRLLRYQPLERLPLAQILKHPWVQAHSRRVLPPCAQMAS
Conditions: AurC kinase assay; 1 µmol/L single concentration; ref DOI: 10.1371/journal.pone.0092146; cited from earlier work.

For series [3], the target named is panel of 255 wild-type kinases (Homo sapiens, UniProt Q16816). Conditions: kinase PHKG1; 1 µmol/L single concentration; ref DOI: 10.1371/journal.pone.0092146; cited from earlier work.
In series [4] the target is T3, panel of 255 wild-type kinases (Homo sapiens, UniProt Q05513).
T3 sequence (Q05513 1-592): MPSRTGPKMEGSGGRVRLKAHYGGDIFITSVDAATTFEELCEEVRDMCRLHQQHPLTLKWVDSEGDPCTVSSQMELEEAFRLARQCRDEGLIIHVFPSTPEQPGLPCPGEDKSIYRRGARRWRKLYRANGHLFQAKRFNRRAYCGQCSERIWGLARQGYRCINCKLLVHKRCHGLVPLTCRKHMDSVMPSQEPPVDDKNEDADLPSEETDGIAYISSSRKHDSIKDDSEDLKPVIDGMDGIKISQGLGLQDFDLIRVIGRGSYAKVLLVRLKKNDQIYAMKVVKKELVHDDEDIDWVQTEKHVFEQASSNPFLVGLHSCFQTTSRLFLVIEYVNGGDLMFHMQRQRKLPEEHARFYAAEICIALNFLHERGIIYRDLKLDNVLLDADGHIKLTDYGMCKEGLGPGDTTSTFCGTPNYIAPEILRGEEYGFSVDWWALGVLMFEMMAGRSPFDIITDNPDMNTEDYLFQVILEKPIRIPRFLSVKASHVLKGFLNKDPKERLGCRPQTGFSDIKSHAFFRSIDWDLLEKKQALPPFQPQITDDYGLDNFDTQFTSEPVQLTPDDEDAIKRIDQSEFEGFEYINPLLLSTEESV
The note with it: kinase PKCζ; 1 µmol/L single concentration; ref DOI: 10.1371/journal.pone.0092146; cited from earlier work.

The target in series [5] is T4, panel of 255 wild-type kinases (Homo sapiens, UniProt Q13470).
T4 sequence (Q13470 1-666): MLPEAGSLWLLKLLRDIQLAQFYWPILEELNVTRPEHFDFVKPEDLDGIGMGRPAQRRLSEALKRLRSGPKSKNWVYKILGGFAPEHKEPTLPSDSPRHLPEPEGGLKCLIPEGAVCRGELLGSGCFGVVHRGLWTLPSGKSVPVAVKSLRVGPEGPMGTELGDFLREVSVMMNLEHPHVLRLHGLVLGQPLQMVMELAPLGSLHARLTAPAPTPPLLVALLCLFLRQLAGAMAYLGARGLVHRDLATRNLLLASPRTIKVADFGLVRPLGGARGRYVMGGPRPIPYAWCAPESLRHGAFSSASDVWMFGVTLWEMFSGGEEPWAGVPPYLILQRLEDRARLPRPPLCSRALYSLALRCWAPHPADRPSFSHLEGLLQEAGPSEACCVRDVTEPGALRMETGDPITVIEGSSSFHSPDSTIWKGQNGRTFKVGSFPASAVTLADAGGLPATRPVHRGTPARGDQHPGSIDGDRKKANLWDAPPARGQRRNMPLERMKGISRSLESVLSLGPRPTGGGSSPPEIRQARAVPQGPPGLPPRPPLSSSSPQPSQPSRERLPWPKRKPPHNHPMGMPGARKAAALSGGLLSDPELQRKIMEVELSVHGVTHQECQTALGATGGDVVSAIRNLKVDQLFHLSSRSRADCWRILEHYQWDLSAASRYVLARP
The note with it: kinase TNK1; 1 µmol/L single concentration; ref DOI: 10.1371/journal.pone.0092146; cited from earlier work.

Series [6] has as its target panel of 255 wild-type kinases (Homo sapiens, UniProt P51957). Conditions: NEK4; 1 µmol/L single concentration; ref DOI: 10.1371/journal.pone.0092146; cited from earlier work.
Series [7] concerns the target panel of 255 wild-type kinases (Homo sapiens, UniProt Q13882). Conditions: BRK kinase assay; 1 µmol/L single concentration; ref DOI: 10.1371/journal.pone.0092146; cited from earlier work.

`CC(=O)Nc1cccc(-n2c(=O)n(C3CC3)c(=O)c3c(Nc4ccc(I)cc4F)n(C)c(=O)c(C)c32)c1` [trametinib]: the “%-inhibition BRSK2” value in series [1] is 5.38%. Moreover, the “%-inhibition AurC” value in series [2] is recorded as 1%. Further, the “%-inhibition at 1 µmol/L, PHKG1” value in series [3] is -2.24%. In addition, the “%-inhibition at 1 µmol/L, PKCζ” value in series [4] was 4.31%. Further, the “%-inhibition at 1 µmol/L, TNK1” value in series [5] is on record as -2.58%. In addition, the “%-inhibition, NEK4” value in series [6] is 2%. Also, in series [7], the “%-inhibition BRK” value is -5.53%.

As for `CCCS(=O)(=O)Nc1ccc(F)c(C(=O)c2c[nH]c3ncc(-c4ccc(Cl)cc4)cc23)c1F` [vemurafenib], the “%-inhibition BRSK2” value in series [1] is listed as -6%. In addition, in series [2], the “%-inhibition AurC” value is reported as 13%. For the same molecule, in series [3], the “%-inhibition at 1 µmol/L, PHKG1” value is -0.913%. Also, the “%-inhibition at 1 µmol/L, PKCζ” value in series [4] was 13%. Further, the “%-inhibition at 1 µmol/L, TNK1” value in series [5] is 13%. In series [6], the “%-inhibition, NEK4” value is on record as -0.416%. Besides, the “%-inhibition BRK” value in series [7] is 98%.
